Test results published in PubChem BioAssay AID743396 (Broad Institute, 2014).
The source made the active and inactive calls.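 Rule for the calls: active = fitted curve reaches a 40% rise in fluorescent cells at or below the top valid dose; inactive = opposite-direction effect, or the rest.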

Assay: autofluorescent compounds in non-GFP fibroblasts, dose response, artefact control for X-chromosome reactivation project, imaging, mTEFS fibroblasts, cherry-pick (AID 743396);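 note: raw share of Hoechst-counted cells scored GFP positive without control normalization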
Conditions: mTEFS fibroblasts autofluorescence, GFP-channel imaging, 3 days; at 6.8 µM (top of the series); cells pretreated with 5-aza-dC

Row | SMILES | % fluorescent cells increase
1 | CCN1/C(=C/c2ccc3cc(C)ccc3[n+]2CC)Sc2cc(C)c(C)cc21 | 27.9% (inactive)

Same assay, conditions: mTEFS fibroblasts autofluorescence, GFP-channel imaging, 3 days; at 19.5 µM (top of the series); cells pretreated with 5-aza-dC

Row | SMILES | % fluorescent cells increase
2 | CN(Cc1nccn1C)C(=O)CC1C(=O)NCCN1CC(c1ccccc1)c1ccccc1 (stereo unspecified) | 0.889% (inactive)
3 | Cn1c(=O)[nH]c(=O)c2c1nc1n2CCCN1Cc1ccccc1 | -0.011% (inactive)
4 | O=C1c2ccc3c4c(ccc(c24)C(=O)N1c1cccc(O)c1)C(=O)N(c1cccc(O)c1)C3=O | -0.003% (inactive)
5 | CC(C)NC(=O)N(C)C[C@@H]1OCCCC[C@H](C)Oc2ccc(NC(=O)Nc3ccc(C(F)(F)F)cc3)cc2C(=O)N([C@H](C)CO)C[C@@H]1C | 0% (inactive)
6 | COc1ccc(NC(=O)COc2ccc(C)c(C)c2)cc1S(=O)(=O)N1CCCCC1 | 0.026% (inactive)
7 | COc1ccc(OC)c(/C=C/c2ccc3cccc(O)c3n2)c1 | -0.004% (inactive)
8 | CCCCC(CCC(=O)Nc1ccn(-c2ccccc2)n1)C(=O)O (stereo unspecified) | -0.003% (inactive)
9 | Cn1cc(/C=C/c2cc[n+](C)cc2)c2cc(Cl)ccc21 | 6.85% (inactive)
10 | CCOCCCn1c(=NC(C)=O)c(C#N)cc2c(=O)n3cccc(C)c3nc21 | 0.498% (inactive)
11 | Cc1ccc2[nH]c(C)c(/C=C/c3cc[n+](C)cc3)c2c1 | 8.78% (inactive)
12 | COc1cccc(CNC(=O)c2ccc(NC(=O)CC3SC(N4CCCC4)=NC3=O)cc2)c1 (stereo unspecified) | 0% (inactive)
13 | Cc1ccc(-c2nc(CS(=O)CC(=O)NCCCN3CC(C)CC(C)C3)c(C)o2)cc1 (stereo unspecified) | 0.023% (inactive)
14 | CC(=O)c1c(COC(=O)c2ccccc2Cl)nc2ccccc2[n+]1[O-] | 0.001% (inactive)
15 | C[C@@H]1C[C@H]2[C@@H]3CCC4=CC(=O)C=C[C@]4(C)[C@@]3(F)[C@@H](O)C[C@]2(C)[C@H]1C(=O)CO | 0% (inactive)
16 | COc1ccc2c3c([nH]c2c1)[C@@H](CO)N(Cc1ccccc1F)CC31CN(C(=O)C2CCOCC2)C1 | -0.038% (inactive)
17 | CC(Sc1nnc(Cc2ccccc2)o1)C(=O)Nc1ccccc1[N+](=O)[O-] (stereo unspecified) | -0.011% (inactive)
18 | Cc1ccc(Nc2nc(N)nc(COC(=O)C3=COCCO3)n2)cc1 | -0.007% (inactive)
19 | O=C1CCCC(O)=C1Sc1cc(Cl)c(Cl)cc1Cl | 0% (inactive)
20 | O=C(O)CSc1ncccn1 | 0.143% (inactive)
21 | NNc1nc2c(-c3ccc(F)cc3)nnn2c2ccccc12 | 0.008% (inactive)

Row | SMILES | % fluorescent cells increase
22 | CCc1ccc(C(=O)NNc2ccc(S(N)(=O)=O)cc2)cc1 | -0.004% (inactive)
23 | Cc1ccc(Cn2cc(/C=N/Nc3ccc([N+](=O)[O-])cn3)c3ccccc32)cc1 | 0.941% (inactive)
24 | C[C@@H]1ON(C)[C@H]2C[C@H]3c4cc(-c5cccc(F)c5)ccc4CCN3C(=O)[C@@H]12 | 0% (inactive)
25 | CCOCCCNC(=O)C(c1ccc(C)cc1)N(Cc1cccs1)C(=O)c1ccccn1 (stereo unspecified) | 0% (inactive)
26 | Cc1ccccc1OCC(O)CNC1CCC(NCC(O)COc2ccccc2C)CC1 (stereo unspecified) | 0% (inactive)
27 | CC(C)(C)C1CCNC(=O)CC1 (stereo unspecified) | -0.007% (inactive)
28 | CCCCNc1nc2c(-c3ccccc3)nnn2c2ccccc12 | 0.006% (inactive)
29 | O=C(N/N=C/c1ccc([N+](=O)[O-])o1)c1cc2ccccc2o1 | 1.73% (inactive)
30 | Cc1ncsc1C(=O)Nc1cccc(C(F)(F)F)c1 | 0.019% (inactive)
31 | CC1CN(Cc2c(O)ccc3c2oc(=O)c2ccccc23)CC(C)O1 (stereo unspecified) | 0.279% (inactive)
32 | COc1ccc(C2C(=O)c3ccccc3C2=Nc2ccc(Br)cc2)cc1 (stereo unspecified) | 0.033% (inactive)
33 | C/C(=N\NC(=O)c1ccccc1Cl)c1ccccn1 | 0% (inactive)
34 | OC[C@@H]1Nc2ccc(C#Cc3ccccc3)cc2[C@H]2[C@@H]1CCN2Cc1nccs1 | 0.018% (inactive)
35 | CO[C@H]1CN(C)C(=O)c2ccc(NC(=O)Cc3ccccc3)cc2OC[C@@H](C)N(C)C[C@H]1C | 0% (inactive)
36 | Cn1c(=O)c(C#N)c(-c2ccc(F)cc2)c2cc(C(=O)c3cc(Cl)cc(Cl)c3O)cnc21 | 0.617% (inactive)
37 | Cc1cccc(C(=O)NCc2ccc(S(N)(=O)=O)cc2)c1[N+](=O)[O-] | -0.007% (inactive)
38 | COc1cc(/C=C/c2ccc3cccc(O)c3n2)cc(OC)c1OC | 0% (inactive)
39 | CC(=O)C1=NN(c2ccc(Cl)cc2)C(c2ccc3c(c2)OCO3)N(C(C)=O)N1C (stereo unspecified) | -0.011% (inactive)
40 | Oc1c(C(c2ccccc2Cl)N2CCCC2)ccc2cccnc12 (stereo unspecified) | 0% (inactive)
41 | Cc1ccc2c(COC(=O)C34CC5CC(CC(C5)C3)C4)cc(=O)oc2c1 | 0% (inactive)

Row | SMILES | % fluorescent cells increase
42 | CC(C)(C)[S@@](=O)N1Cc2cc(C(=O)N3CCCCC3)nc(-c3cccc(-c4cccc(C#N)c4)c3)c2[C@H]1CCO | 0.101% (inactive)
43 | C/C=C/c1ccc(C2[C@H]3CNC[C@@H]2N3Cc2cc(-c3ccccc3)on2)cc1 (stereo partly specified) | -0.166% (inactive)
44 | CCOC(=O)c1ccc(NC(=O)C2(N3C(=O)c4ccccc4C3=O)CCCC2)cc1 | 0.495% (inactive)
45 | O=CNc1ccc2c(c1)Cc1cc([N+](=O)[O-])ccc1-2 | 0.119% (inactive)
46 | Cc1ccc(NC(=O)c2ncn(CCCNCCCN(C)C)n2)cc1C | 0% (inactive)
47 | Cc1ccc(S(=O)(=O)N2CCOCC2)cc1C(=O)OCC(=O)NC1CCS(=O)(=O)C1 (stereo unspecified) | 0.086% (inactive)
48 | CCN(CC)CCCNC1=C(Cl)C(=O)c2ccccc2C1=O | -0.011% (inactive)
49 | Cc1cc(NC(=O)CSc2nnc(-c3c[nH]c4ccccc34)n2-c2ccc(F)cc2)no1 | 0.026% (inactive)
50 | COc1ccc(/C=C\c2onc(C)c2S(=O)(=O)N2CCC(C(=O)NCc3ccco3)CC2)cc1 | 0.029% (inactive)
51 | NC(=O)c1sc2nc3c(cc2c1N)CCCCCC3 | 0.03% (inactive)
52 | O=C(NCc1ccccc1)c1ccccc1Br | 3.38% (inactive)
53 | CC(=O)c1ccc(NS(=O)(=O)c2ccc(N/C=C/C(=O)c3ccc(F)cc3)cc2)cc1 | 0% (inactive)
54 | COCCNC(=O)CSc1nc2scc(-c3ccccc3)c2c(=O)[nH]1 | 0.106% (inactive)
55 | COC(=O)c1ccc(CNC(=O)COC(=O)c2cc(Cl)ccc2O)cc1 | 0% (inactive)
56 | COc1ccc(Cc2c(O)nc(SCC(=O)NC34CC5CC(CC(C5)C3)C4)[nH]c2=O)cc1 | 0.014% (inactive)
57 | O=C(NCCO)/C(=C/c1ccco1)NC(=O)c1ccco1 | 0.007% (inactive)
58 | COc1ccccc1C(=O)Nc1nnc(S(=O)(=O)N2CCCCCC2)s1 | 0.055% (inactive)
59 | CC(=O)N[C@@H](CC(=O)O)C(=O)O | 0.642% (inactive)

Same assay, conditions: mTEFS fibroblasts autofluorescence, GFP-channel imaging, 3 days; at 21 µM (top of the series); cells pretreated with 5-aza-dC

Row | SMILES | % fluorescent cells increase
60 | Cc1ccc(-c2ccccc2[C@@H]2[C@H](C#N)N(S(C)(=O)=O)[C@H]2CO)cc1 | -0.036% (inactive)
61 | CO[C@H](CN(C)C(=O)Nc1ccc(C(F)(F)F)cc1)[C@@H](C)CN(Cc1ccccc1Cl)[C@@H](C)CO | 0% (inactive)
